In patent US9139532B2, “Pyrazolyl guanidine F1F0-atpase inhibitors and therapeutic uses thereof” (Lycera Corporation, priority 2010, dated 2015):
Read-outs that look alike come from different tables or passages of the source.

Columns and labels:
Ramos cells = test: Cytotoxicity in Ramos cells; type: cell-based; settings: cytotoxicity in Ramos cells, read-out: Ramos Cell EC50
F1F0-ATPase = biological target: T1, F1F0-ATPase (Bos taurus, UniProt P13621); test: Inhibition of F1F0-ATPase activity in synthesizing ATP; type: biochemical; settings: inhibition of ATP synthesis by F1F0-ATPase; read-out: ATP Syn IC50
T1 construct: from tissue

Compound | EC50 (Ramos cells) | IC50 (F1F0-ATPase) | EC50 (Ramos cells; Homo sapiens)
CC(C)CN/C(=N/C(=O)c1ccc(F)cc1)Nc1cc(-c2cc(F)cc(F)c2)n[nH]1 [Compound A-244] | < 10 µM | < 10 µM | –
O=C(/N=C(/NCc1ccc(F)cc1Cl)Nc1cc(-c2ccccc2)n[nH]1)c1ccc(F)c(F)c1 [Compound A-483] | > 10 µM | < 10 µM | –
CC(C)(C)NC(=NC(=O)c1ccc(C(F)(F)F)cc1)Nc1cc(-c2ccccc2)[nH]n1 [Compound A-153] | – | < 10 µM | < 10 µM
COC[C@H](C)N/C(=N/C(=O)c1ccc(C)c(F)c1)Nc1cc(C(F)(F)F)[nH]n1 [Compound A-535] | < 10 µM | < 10 µM | –
CC(C)(C)NC(=NC(=O)c1cccc(F)c1)Nc1cc(-c2ccc(Cl)cc2)n[nH]1 [Compound A-133] | – | < 10 µM | < 10 µM
COc1ccc(-c2cc(N/C(=N\C(=O)c3ccc(C(F)(F)F)cc3)NCC(C)(C)C)[nH]n2)cc1F [Compound A-573] | > 10 µM | < 10 µM | –
CCOCC(C)N/C(=N/C(=O)c1ccc(F)c(F)c1)Nc1cc(-c2ccc(F)cc2)n[nH]1 (stereo not shown) [Compound A-267] | < 10 µM | < 10 µM | –
CCOCCCN/C(=N/C(=O)c1ccnc(CC)c1)Nc1cc(-c2ccc(F)cc2)[nH]n1 [Compound A-175] | > 10 µM | < 10 µM | –
O=C(N=C(Nc1cc(C(F)(F)F)n[nH]1)NC1CCC(F)(F)CC1)c1ccc(Cl)c(F)c1 [Compound A-558] | – | < 10 µM | < 10 µM
O=C(/N=C(\Nc1cc(C(F)(F)F)n[nH]1)NC1CCOCC1)c1ccc(Cl)c(F)c1 [Compound A-118] | – | < 10 µM | < 10 µM
COCC(C)NC(=NC(=O)c1ccc(F)cc1)Nc1cc(-c2cc(F)cc(F)c2)n[nH]1 (stereo not shown) [Compound A-275] | < 10 µM | < 10 µM | –
COC[C@H](C)N/C(=N/C(=O)c1ccnc(OC)c1)Nc1cc(-c2ccc(F)cc2)n[nH]1 [Compound A-495] | < 10 µM | < 10 µM | –
COCC(C)NC(=NC(=O)c1ccnc(N2CCCC2)c1)Nc1cc(-c2ccc(F)cc2)[nH]n1 (stereo not shown) [Compound A-484] | – | < 10 µM | < 10 µM
Cn1nc(C(F)(F)F)cc1N/C(=N\C(=O)c1ccc(C(F)(F)F)cc1)Nc1cc(F)cc(Cl)c1 [Compound A-48] | – | < 10 µM | < 10 µM
CC(C)(C)N/C(=N/C(=O)c1ccc(Cl)cc1)Nc1n[nH]cc1C#N [Compound A-37] | – | < 10 µM | > 10 µM
O=C(/N=C(\Nc1cc(-c2ccc(F)cc2)n[nH]1)NC1CC1)c1cccc(F)c1 [Compound A-202] | > 10 µM | < 10 µM | –
Cc1cc(-c2cc(N/C(=N\C(=O)c3ccc(C(F)(F)F)cc3)NC(C)(C)C)n[nH]2)ccc1F [Compound A-417] | < 10 µM | < 10 µM | –
O=C(/N=C(\Nc1cc(C(F)(F)F)[nH]n1)NC1CCCC1)c1ccc(C(F)F)cc1 [Compound A-67] | – | < 10 µM | < 10 µM
O=C(N=C(NCc1ccc(F)cc1Cl)Nc1cc(-c2ccc(F)cc2)n[nH]1)c1cccc(Cl)c1 [Compound A-452] | – | < 10 µM | < 10 µM
CC(C)N/C(=N/C(=O)c1ccc(F)c(F)c1)Nc1cc(-c2cc(F)cc(Cl)c2)n[nH]1 [Compound A-286] | < 10 µM | < 10 µM | –
CCOCC(C)NC(=NC(=O)c1ccc(C(F)(F)F)cc1)Nc1cc(-c2ccc(Cl)cc2)n[nH]1 (stereo not shown) [Compound A-237] | < 10 µM | < 10 µM | –
CC(C)(C)NC(=NC(=O)c1cc(F)c(F)c(F)c1)Nc1cc(-c2ccc(F)cc2)n[nH]1 [Compound A-403] | – | < 10 µM | < 10 µM

Compound | EC50 (Ramos cells) | IC50 (F1F0-ATPase) | EC50 (Ramos cells; Homo sapiens)
CC(C)(C)N/C(=N/C(=O)c1cccnc1C(F)(F)F)Nc1cc(-c2ccc(F)cc2)[nH]n1 [Compound A-167] | < 10 µM | < 10 µM | –
CC(C)(C)N/C(=N/C(=O)c1cccc(S(C)(=O)=O)c1)Nc1cc(-c2ccc(F)cc2)n[nH]1 [Compound A-499] | < 10 µM | < 10 µM | –
CC(N/C(=N/C(=O)c1ccc(C(F)(F)F)cc1)Nc1cc(C(F)(F)F)[nH]n1)c1ccccc1Cl (stereo not shown) [Compound A-22] | – | < 10 µM | < 10 µM
CC(C)(C)CN/C(=N/C(=O)c1ccc(F)c(F)c1)Nc1cc(C(F)(F)F)n[nH]1 [Compound A-43] | – | < 10 µM | < 10 µM
O=C(/N=C(\Nc1cc(C(F)(F)F)[nH]n1)NC1CCC(O)CC1)c1ccc(Cl)c(F)c1 (stereo not shown) [Compound A-557] | > 10 µM | > 10 µM | –
O=C(/N=C(/NCC1CCO1)Nc1cc(-c2ccc(F)cc2)n[nH]1)c1ccc(F)c(F)c1 (stereo not shown) [Compound A-266] | < 10 µM | < 10 µM | –
O=C(N=C(NCc1ccc(F)cc1Cl)Nc1cc(-c2cc(F)cc(F)c2)n[nH]1)c1ccc(C(F)(F)F)cc1 [Compound A-292] | – | < 10 µM | < 10 µM
O=C(/N=C(/NCC(F)(F)F)Nc1cc(C(F)(F)F)[nH]n1)c1ccc(Cl)cc1 [Compound A-5] | – | < 10 µM | < 10 µM
CCC(C)N/C(=N/C(=O)c1cccc(OC)c1)Nc1cc(-c2ccc(F)cc2)n[nH]1 (stereo not shown) [Compound A-172] | – | < 10 µM | < 10 µM
CCOCCCN/C(=N/C(=O)c1ccc(F)cc1)Nc1cc(-c2ccc(F)cc2)n[nH]1 [Compound A-280] | > 10 µM | < 10 µM | –
CC(C)(C)NC(=NC(=O)c1ccc(Cl)c(F)c1)Nc1cc(-c2cccc(Cl)c2)[nH]n1 [Compound A-468] | – | < 10 µM | < 10 µM
COc1cccc(C(=O)/N=C(/NCc2ccccc2C)Nc2cc(-c3ccc(F)cc3)[nH]n2)c1 [Compound A-395] | < 10 µM | < 10 µM | –
CC(C)(C)N/C(=N/C(=O)c1ccc(C(F)(F)F)cc1)Nc1cc(C(=O)O)n[nH]1 [Compound A-565, (Z)-5-(3-(tert-Butyl)-2-(4-(trifluoromethyl)benzoyl)guanidino)-1H-pyrazole-3-carboxylic acid] | – | > 10 µM | > 10 µM
O=C(/N=C(/Nc1cc(C(F)(F)F)n[nH]1)NC1CCCC1)c1ccc(C(F)(F)F)cc1 [Compound A-92] | – | < 10 µM | < 10 µM
O=C(/N=C(/NCc1ccc(F)cc1Cl)Nc1cc(-c2ccc(F)cc2)n[nH]1)c1ccc(Cl)cc1 [Compound A-454] | < 10 µM | < 10 µM | –
CC(C)(C)N/C(=N/C(=O)c1ccc(N2CCOCC2)nc1)Nc1cc(-c2ccc(F)cc2)[nH]n1 [Compound A-164] | < 10 µM | < 10 µM | –
CCc1cc(C(=O)N=C(NCC(C)C)Nc2cc(-c3ccc(F)cc3)n[nH]2)ccn1 [Compound A-176] | – | < 10 µM | < 10 µM
CC(C)CN/C(=N/C(=O)c1ccc(F)cc1)Nc1cc(-c2ccc(F)cc2)[nH]n1 [Compound A-513] | < 10 µM | < 10 µM | –
CC(C)CN/C(=N/C(=O)c1ccc(F)c(F)c1)Nc1[nH]nc(-c2ccc(Cl)cc2)c1F [Compound A-161] | > 10 µM | > 10 µM | –
COc1cccc(C(=O)/N=C(/NCC(C)C)Nc2cc(-c3ccc(Cl)cc3)[nH]n2)c1 [Compound A-169] | < 10 µM | < 10 µM | –
CC(C)NC(=NC(=O)c1ccc(C(F)(F)F)cc1)Nc1cc(-c2cc(F)cc(F)c2)n[nH]1 [Compound A-296] | – | < 10 µM | < 10 µM
CCC(CC)NC(=NC(=O)c1ccc(Cl)c(F)c1)Nc1cc(-c2cc(F)cc(F)c2)n[nH]1 [Compound A-350] | – | < 10 µM | < 10 µM
